The test system of data set [1] is 409-B2 iCRISPR-Cas9 iPSCs. Kind of data set: PGE efficiency with iCRISPR Cas9 and ssODN donors. The settings on record: 0.01 μM TSA, 0.5 μM MLN4924, 1 μM NSC 19630, 20 μM AICAR, 1 μM RS-1, 1 μM Resveratrol, 1 μM SCR7, 5 μM L755507, 5 μM STL127685, 20 μM B02. The format is cell-based, human. The procedure: (§1) FIG. 1: Genome editing and analysis flowchart. iCRISPR 409-B2 iPSCs are treated with 2 μg/ml doxycycline at least for 2 days to induce Cas9 or Cas9D10A expression. Reverse transfection with RNAiMAX, gRNA (7.5 nM each), ssODN (10 nM) and the small molecules to be evaluated is carried out in a 96 well plate for 1 day. The amount of cells used gives ˜80% confluency. Cells are then expanded for 3 days with regular media change. After harvest follows DNA extraction, PCR amplification of targeted loci, Illumina sequencing and CRISPResso (Pinello et al. 2016) sequence analysis for amount of indels and precise genome editing.
(§2) Cells were incubated with media containing 2 μg/ml doxycycline (Clontech, 631311) 2 days prior to lipofection. Lipofection (reverse transfection) was done using the alt-CRISPR manufacturer's protocol (IDT) with a final concentration of 7.5 nM of each gRNA and 10 nM of the respective ssODN. In brief, 0.75 μl RNAiMAX (Invitrogen, 13778075) and the respective oligonucleotides were separately diluted in 25 μl OPTI-MEM (Gibco, 1985-062) each and incubated at room temperature for 5 min. Both dilutions were mixed to yield 50 μl of OPTI-MEM including RNAiMAX, gRNAs and ssODNs. The lipofection mix was incubated for 20-30 min at room temperature. During incubation cells were dissociated using EDTA for 5 min and counted using the Countess Automated Cell Counter (Invitrogen). The lipofection mix, 100 μl containing 25.000 dissociated cells in mTeSR1 supplemented with Y-27632, 2 μg/ml doxycycline and the respective small molecule(s) to be tested were throughoutly mixed and put in one well of a 96 well covered with Matrigel Matrix (Corning, 35248). Media was exchanged to regular mTeSR1 media after 24 hours.
(§3) Three days after lipofection cells were dissociated using Accutase (SIGMA, A6964), pelleted, and resuspended in 15 μl QuickExtract (Epicentre, QE0905T). Incubation at 65° C. for 10 min, 68° C. for 5 min and finally 98° C. for 5 min was performed to yield ssDNA as a PCR template. Primers for each targeted loci of CALD1, KATNA1 and SLITRK1 containing adapters for Illumina sequencing were ordered from IDT (Coralville, USA). PCR was done in a T100 Thermal Cycler (Bio-Rad) using the KAPA2G Robust PCR Kit (Peqlab, 07-KK5532-03) with supplied buffer B and 3 μl of cell extract in a total volume of 25 μl. The thermal cycling profile of the PCR was: 95° C. 3 min; 34×(95° 15 sec, 65° C. 15 sec, 72° C. 15 sec); 72° C. 60 sec. P5 and P7 Illumina adapters with sample specific indices were added in a second PCR reaction (Kircher et al. 2012) using Phusion HF MasterMix (Thermo Scientific, F-531L) and 0.3 μl of the first PCR product. The thermal cycling profile of the PCR was: 98° C. 30 sec; 25× (98° 10 sec, 58° C. 10 sec, 72° C. 20 sec); 72° C. 5 min. Amplifications were verified by size separating agarose gel electrophoresis using EX gels (Invitrogen, G4010-11). The indexed amplicons were purified using Solid Phase Reversible Immobilization (SPRI) beads (Meyer, Kircher 2010). Double-indexed libraries were sequenced on a MiSeq (Illumina) giving paired-end sequences of 2×150 bp. After base calling using Bustard (Illumina) adapters were trimmed using leeHom (Renaud et al. 2014).
(§4) CRISPresso (Pinello et al. 2016) was used to analyse sequencing data from CRISPR genome editing experiments for percentage of wildtype, targeted nucleotide substitutions (TNS), indels and mix of TNS and indels. Parameters used for analysis were ‘-w 20’, ‘--min_identity_score 70’ and ‘--ignore_substitutions’ (analysis was restricted to amplicons with a minimum of 70% similarity to the wildtype sequence and to a window of 20 bp from each gRNA; substitutions were ignored, as sequencing errors would be falsely characterized as NHEJ-events). Sequencing data from colonies after single cell seeding (FIGS. 3B and C) was further analyzed by evaluating the actual read sequences using SAMtools. Clonal colonies were differentiated from mixed colonies using sequence read proportions. […]

Data set [2] has as its system 409-B2 iCRISPR-Cas9D10A iPSCs. In words: Precise genome editing (PGE) efficiency with iCRISPR Cas9D10A double nicking and ssODN donors, Illumina sequencing/CRISPResso. It counts as cell-based, human. The settings on record: for effect on PGE frequency over CALD1, KATNA1 and SLITRK1 compared to controls: 1 μM NSC 19630, 20 μM AICAR, 1 μM RS-1, 1 μM Resveratrol, 1 μM SCR7, 5 μM L755507, 5 μM STL127685, 20 μM B02; for effect on PGE of further addition to the mix of NU7026, TSA and MLN4924: all loci, 5 μM NSC 15520, then 1 μM NSC 19630, 20 μM AICAR, 1 μM RS-1 (FIG. 5A); for effect on PGE efficiency with ssODN (discussion summary): nuclease not stated; for PGE increase (mean change vs control): 20 μM NU7026, 0.01 μM TSA, 0.5 μM MLN4924, 5 μM NSC 15520, CRISPY mix = all four. As to the method:
as §1, §2, §3, §4

Data set [3] relates to 409-B2 iCRISPR Cas9D10A iPSCs. Kind of data set: Cell death by phase contrast light microscopy in first concentration screen. The format is cell-based, human. The text has this:
FIGS. 3A-3D: First screen for solvent effect and influence of different small molecule concentrations on genome edit-ing of CALD1, KATNA1 and SLITRK1 with iCRISPR Cas9D10A. Shown are precise genome editing (PGE) and indels with green circles (triangles) or blue diamonds, respectively. Each symbol represents a technical replicate. The respective means are shown as a black line. Each skull indicates cell death of up to 20% determined by phase contrast light microscopy.

Data set [4] relates to mouse ESCs. Conditions: literature; dsODN donors, control 17.7%; cited from earlier work.
Data set [5] has as its system HEK293A cells. The settings on record: literature; RS-1 with dsODN donors, control 3.5%; cited from earlier work.
Data set [6] concerns rabbit embryos. Conditions: literature; RS-1 with dsODN donors, control 4.4%; cited from earlier work.
Data set [7] deals with human LIG4 (Homo sapiens, UniProt P49917). The settings on record: literature (Greco et al. 2016); cited from earlier work.
Sequence of human LIG4 (P49917 whole entry): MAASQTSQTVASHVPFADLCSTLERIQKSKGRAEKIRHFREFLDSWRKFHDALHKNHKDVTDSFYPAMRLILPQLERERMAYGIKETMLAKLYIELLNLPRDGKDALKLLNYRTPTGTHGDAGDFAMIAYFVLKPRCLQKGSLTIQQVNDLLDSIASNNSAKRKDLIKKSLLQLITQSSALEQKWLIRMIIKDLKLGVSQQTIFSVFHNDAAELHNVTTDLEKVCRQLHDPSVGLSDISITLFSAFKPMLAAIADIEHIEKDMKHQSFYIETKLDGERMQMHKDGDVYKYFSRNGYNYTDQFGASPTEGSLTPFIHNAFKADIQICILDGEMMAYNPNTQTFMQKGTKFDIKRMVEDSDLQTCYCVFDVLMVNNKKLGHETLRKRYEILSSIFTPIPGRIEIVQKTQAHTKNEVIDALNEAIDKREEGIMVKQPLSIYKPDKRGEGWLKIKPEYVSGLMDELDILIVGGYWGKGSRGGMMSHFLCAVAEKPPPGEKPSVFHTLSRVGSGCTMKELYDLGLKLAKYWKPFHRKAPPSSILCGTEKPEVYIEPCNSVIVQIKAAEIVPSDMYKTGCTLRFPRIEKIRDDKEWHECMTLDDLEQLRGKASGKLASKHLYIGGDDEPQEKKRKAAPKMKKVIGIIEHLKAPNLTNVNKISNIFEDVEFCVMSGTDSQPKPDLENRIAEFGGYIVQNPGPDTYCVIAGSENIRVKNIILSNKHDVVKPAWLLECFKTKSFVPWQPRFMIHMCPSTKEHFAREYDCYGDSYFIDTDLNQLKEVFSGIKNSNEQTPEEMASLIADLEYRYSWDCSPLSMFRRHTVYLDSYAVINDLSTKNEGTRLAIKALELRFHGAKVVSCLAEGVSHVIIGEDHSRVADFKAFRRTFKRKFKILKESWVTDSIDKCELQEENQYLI
Sequence of human LIG4 (Q13426 whole entry partner): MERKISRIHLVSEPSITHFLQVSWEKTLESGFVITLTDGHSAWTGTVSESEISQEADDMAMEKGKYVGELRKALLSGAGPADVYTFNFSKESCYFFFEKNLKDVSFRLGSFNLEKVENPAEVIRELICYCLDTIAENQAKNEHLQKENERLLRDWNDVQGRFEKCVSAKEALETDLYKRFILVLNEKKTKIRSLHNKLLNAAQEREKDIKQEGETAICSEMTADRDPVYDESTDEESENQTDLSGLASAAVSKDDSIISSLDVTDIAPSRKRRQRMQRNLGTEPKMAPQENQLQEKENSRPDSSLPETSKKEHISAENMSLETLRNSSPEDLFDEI
Data set [8] has as its system human stem cells. The settings on record: literature; cited from earlier work.
For data set [9], the system named is U2OS cells. Conditions: literature; dsODN donors, control 1.9%; cited from earlier work.
The subject of data set [10] is porcine fetal fibroblasts. Conditions: literature; ssODN donors; cited from earlier work.

Here are results for seven molecules from patent publication US12173309B2, “Compounds for increasing genome editing efficiency” (Max-Planck-Gesellschaft zur Förderung der Wissenschaften …, priority 2017, dated 2024).

“Also recorded” adds a separate entry of the source.

Consider `NC(=O)c1ncn([C@@H]2O[C@H](CO)[C@@H](O)[C@H]2O)c1N` [AICAR], for which the “effect on PGE frequency over CALD1, KATNA1 and SLITRK1 compared to controls” value in data set [1] was “no effect or a diminishing effect”; in [2] (Cas9D10A) it was “no clear effect”. Further, the “effect on PGE of further addition to the mix of NU7026, TSA and MLN4924” value in data set [2] (Cas9D10A) was “no measurable effect”. In addition, the “effect on PGE efficiency with ssODN (discussion summary)” value (from here on “effect on PGE efficiency with ssODN”) in data set [2] is on record as “no effect”.
Turning to `CC(/C=C/C(=O)NO)=C\[C@@H](C)C(=O)c1ccc(N(C)C)cc1` [TSA, Trichostatin A], in data set [1], the “effect on PGE frequency over CALD1, KATNA1 and SLITRK1 compared to controls” value is given as “no enhancing effect”. The cell death result in data set [3] (0.1 μM) and in data set [3] (1 μM) was “All cells died” each time. Moreover, the “PGE increase (mean change vs control)” value amounted to 1.5 fold in [2] (CALD1, Cas9D10A); 2.2 fold in data set [2] (KATNA1, Cas9D10A); 1.8 fold in [2] (SLITRK1, Cas9D10A). Also, in data set [2] (Cas9D10A, pooled across CALD1, KATNA1, SLITRK1 (FIG. 5A), p<0.001), the “higher PGE frequency than without the molecules” value is 1.8 fold.
In the case of `CCCCCCNC(=O)Nc1ccc(S(=O)(=O)Nc2ccc(CCNC[C@H](O)COc3ccc(O)cc3)cc2)cc1` [L755507], the PGE in data set [4] is 33.3%; in [5], “did not find significant stimulation”. For the same molecule, the figures for the “effect on PGE frequency over CALD1, KATNA1 and SLITRK1 compared to controls” value in [1] and in [2] (Cas9D10A) were “no effect or a diminishing effect; also recorded: no clear effect” and “no clear effect”, respectively.
Turning to `Oc1ccc(C=Cc2cc(O)cc(O)c2)cc1` [Resveratrol], the “effect on PGE frequency over CALD1, KATNA1 and SLITRK1 compared to controls” value was “no effect or a diminishing effect” in data set [1] and “no clear effect” in [2] (Cas9D10A).
In the case of `O=c1[nH]c(=S)[nH]c(N=Cc2ccccc2)c1N=Cc1ccccc1` [SCR7], the PGE result in [6] was “no significant effect”; in data set [5], “marginal but significant increase”. Besides, the “inhibition of human LIG4” value in data set [7] is listed as “neither selective nor potent”. Also, the “effect on PGE” value in [8] is “no significant effect”. Further, the “effect on PGE frequency over CALD1, KATNA1 and SLITRK1 compared to controls” value in data set [1] is listed as “no effect or a diminishing effect; also recorded: no clear effect”; in [2] (Cas9D10A) it was “no clear effect”.
As to `O=C(Nc1ccc(Br)cc1)c1ccc(Br)c(S(=O)(=O)NCc2ccccc2)c1` [RS-1], the values for the PGE in data set [6], in data set [5] and in [9] were 26.1%, 21% and 2.4%, respectively. For the same molecule, the “effect on PGE frequency over CALD1, KATNA1 and SLITRK1 compared to controls” value in [1] is “no effect or a diminishing effect; also recorded: no clear effect”; in data set [2] (Cas9D10A), “no clear effect”. In addition, the “effect on PGE of further addition to the mix of NU7026, TSA and MLN4924” value in data set [2] (Cas9D10A) was “no measurable effect”. Also, the “effect on PGE efficiency with ssODN” value in data set [2] is “no beneficial effect”. The “effect on PGE efficiency” value in data set [10] is on record as “No effect”.
As for `O=c1c2ccccc2nc(/C=C/c2cccnc2)n1Cc1ccccc1` [B02], the “effect on PGE frequency over CALD1, KATNA1 and SLITRK1 compared to controls” value in data set [1] and in data set [2] (Cas9D10A) was “halved” throughout. The “effect on PGE efficiency with ssODN” value in data set [2] is listed as “halved”.
